Reference: the NIST ThermoML archive (doi:10.1016/j.jct.2006.04.005)

Key:
[1] = xn = mol fraction of the nth substance listed; conditions: 303.15 K, 101 kPa, Liquid; for viscosity: Capillary tube (Ostwald / Ubbelohde) method; for excess molar volume: Direct dilatometry; for mass density: Pycnometric method
[2] = 303.15 K, 101 kPa, Liquid; for viscosity: Capillary tube (Ostwald / Ubbelohde) method; for mass density: Pycnometric method

Clc1cccc(Cl)c1 [1,3-dichlorobenzene] + C[S+](C)[O-]
[1]
Conditions | excess molar volume [m3/mol] | mass density [kg/m3] | speed of sound [m/s] | viscosity [mPa·s]
x2 = 0 | – | 1277.12 | 1242 | 1.025
x2 = 0.0801 | 1.6e-08 | – | 1244 | 1.107
x2 = 0.1124 | 2.2e-08 | – | 1248 | 1.14
x2 = 0.1506 | 2.7e-08 | – | 1253 | 1.181
x2 = 0.2075 | 3.5e-08 | – | 1256 | 1.232
x2 = 0.2511 | 4e-08 | – | 1268 | 1.273
x2 = 0.3162 | 4.5e-08 | – | 1387 | 1.329
x2 = 0.4219 | 5.3e-08 | – | 1395 | 1.419
x2 = 0.4507 | 5.5e-08 | – | 1305 | 1.445
x2 = 0.5005 | 5.6e-08 | – | 1345 | 1.487
x2 = 0.6224 | 5.4e-08 | – | 1370 | 1.586
x2 = 0.6819 | 5e-08 | – | 1399 | 1.632
x2 = 0.7517 | 4.3e-08 | – | 1416 | 1.68
x2 = 0.8015 | 3.5e-08 | – | 1431 | 1.715
x2 = 0.852 | 2.7e-08 | – | 1455 | 1.742
x2 = 0.9221 | 1.7e-08 | – | 1467 | 1.778

Cc1cccc(Cl)c1 [3-chlorotoluene]
[2]
Conditions | mass density [kg/m3] | speed of sound [m/s] | viscosity [mPa·s]
– | 1065.21 | 1280 | 0.78

C[S+](C)[O-] [dimethyl sulfoxide]
[2]
Conditions | mass density [kg/m3] | speed of sound [m/s] | viscosity [mPa·s]
– | 1091.35 | 1470 | 1.803

C[S+](C)[O-] [dimethyl sulfoxide] + Clc1ccc(Cl)c(Cl)c1
[1], x1 = 1
Conditions | mass density [kg/m3] | speed of sound [m/s]
– | 1091.35 | 1470

C[S+](C)[O-] [dimethyl sulfoxide] + Cc1ccc(Cl)cc1
[1], x1 = 1
Conditions | mass density [kg/m3] | speed of sound [m/s] | viscosity [mPa·s]
– | 1091.35 | 1470 | 1.803

Cc1ccccc1[N+](=O)[O-] [2-nitrotoluene] + C[S+](C)[O-]
[1]
Conditions | excess molar volume [m3/mol] | mass density [kg/m3] | speed of sound [m/s] | viscosity [mPa·s]
x2 = 0 | – | 1153.24 | – | 1.911
x2 = 0.0815 | 2.3e-08 | – | 2039 | 1.903
x2 = 0.1525 | 5.4e-08 | – | 1986 | 1.896
x2 = 0.2422 | 9.3e-08 | – | 1922 | 1.888
x2 = 0.2913 | 1.13e-07 | – | 1888 | 1.883
x2 = 0.3415 | 1.28e-07 | – | 1849 | 1.878
x2 = 0.4026 | 1.45e-07 | – | 1807 | 1.872
x2 = 0.4505 | 1.55e-07 | – | 1773 | 1.867
x2 = 0.5119 | 1.58e-07 | – | 1731 | 1.861
x2 = 0.5523 | 1.59e-07 | – | 1704 | 1.857
x2 = 0.602 | 1.54e-07 | – | 1674 | 1.852
x2 = 0.6521 | 1.43e-07 | – | 1645 | 1.847
x2 = 0.7122 | 1.25e-07 | – | 1612 | 1.841
x2 = 0.7516 | 1.13e-07 | – | 1591 | 1.836
x2 = 0.8115 | 8.5e-08 | – | 1564 | 1.829
x2 = 0.9227 | 3.5e-08 | – | 1508 | 1.814

C[S+](C)[O-] [dimethyl sulfoxide] + Cc1cccc([N+](=O)[O-])c1
[1], x1 = 1
Conditions | mass density [kg/m3] | speed of sound [m/s]
– | 1091.35 | 1470

Cc1cccc(Cl)c1 [3-chlorotoluene] + C[S+](C)[O-]
[1]
Conditions | excess molar volume [m3/mol] | mass density [kg/m3] | speed of sound [m/s] | viscosity [mPa·s]
x2 = 0 | – | 1065.21 | 1280 | 0.78
x2 = 0.0868 | 1.2e-08 | – | 1300 | 1.02
x2 = 0.1205 | 1.7e-08 | – | 1308 | 1.073
x2 = 0.1911 | 2.8e-08 | – | 1324 | 1.164
x2 = 0.2207 | 3.1e-08 | – | – | 1.203
x2 = 0.261 | 3.7e-08 | – | 1342 | 1.249
x2 = 0.3125 | 4.1e-08 | – | 1356 | 1.305
x2 = 0.3829 | 4.7e-08 | – | 1372 | 1.38
x2 = 0.4156 | 4.9e-08 | – | 1382 | 1.415
x2 = 0.502 | 5.2e-08 | – | 1404 | 1.503
x2 = 0.5419 | 5e-08 | – | 1412 | 1.541
x2 = 0.6205 | 4.7e-08 | – | 1429 | 1.602
x2 = 0.7125 | 3.7e-08 | – | 1450 | 1.674
x2 = 0.7517 | 3.3e-08 | – | 1457 | 1.704
x2 = 0.824 | 2.5e-08 | – | 1468 | 1.735
x2 = 0.9246 | 1.3e-08 | – | 1469 | 1.783

Cc1ccccc1Cl [2-chlorotoluene] + C[S+](C)[O-]
[1]
Conditions | excess molar volume [m3/mol] | mass density [kg/m3] | speed of sound [m/s] | viscosity [mPa·s]
x2 = 0 | – | 1072.81 | 1284 | 0.887
x2 = 0.104 | 1.1e-08 | – | 1303 | 1.013
x2 = 0.1845 | 2.1e-08 | – | 1324 | 1.123
x2 = 0.2141 | 2.5e-08 | – | 1330 | 1.16
x2 = 0.2552 | 2.9e-08 | – | 1343 | 1.209
x2 = 0.3075 | 3.3e-08 | – | 1352 | 1.266
x2 = 0.376 | 3.9e-08 | – | 1369 | 1.342
x2 = 0.4079 | 4.2e-08 | – | 1377 | 1.375
x2 = 0.5224 | 4.6e-08 | – | 1403 | 1.49
x2 = 0.551 | 4.5e-08 | – | 1410 | 1.518
x2 = 0.6005 | 4.2e-08 | – | 1422 | 1.564
x2 = 0.7241 | 3.1e-08 | – | 1446 | 1.667
x2 = 0.761 | 2.7e-08 | – | 1450 | 1.69
x2 = 0.8011 | 2.3e-08 | – | 1460 | 1.724
x2 = 0.8711 | 1.6e-08 | – | 1464 | 1.773

Cc1ccccc1Cl [2-chlorotoluene]
[2]
Conditions | mass density [kg/m3] | speed of sound [m/s] | viscosity [mPa·s]
– | 1072.81 | 1284 | 0.887
